Source: publication PMC7605328 (ACS Medicinal Chemistry Letters, 2020)

Key:
COVID-19 = conditions: cited from earlier work
SARS-CoV-2 M^pro = SARS-CoV-2 M^pro (Severe acute respiratory syndrome coronavirus 2, UniProt P0DTD1); assay: FRET-based kinetic assay of M^pro inhibition; assay type: biochemical

Q: Which results are given for `CCC(CC)COC(=O)[C@H](C)N[P@](=O)(OC[C@H]1O[C@@](C#N)(c2ccc3c(N)ncnn23)[C@H](O)[C@@H]1O)Oc1ccccc1` [remdesivir]?
A: clinical benefit (COVID-19; adult patients hospitalized for severe COVID-19): no statistically significant clinical benefits; time to clinical improvement (COVID-19; in comparison to the placebo-control group): faster time to clinical improvement

Q: Which “benefits against COVID-19 in clinical trials” value (COVID-19; clinical trials, no reference given) does the source give for `Cc1cccc(C)c1OCC(=O)N[C@@H](Cc1ccccc1)[C@@H](O)C[C@H](Cc1ccccc1)NC(=O)[C@H](C(C)C)N1CCCNC1=O` [lopinavir] here?
A: neither lopinavir nor the lopinavir/ritonavir combination has thus far shown any significant benefits

Q: For `Cc1c(O)cccc1C(=O)N[C@@H](CSc1ccccc1)[C@H](O)CN1C[C@H]2CCCC[C@H]2C[C@H]1C(=O)NC(C)(C)C` [nelfinavir], which IC50 (SARS-CoV-2 M^pro) is on record?
A: 250 to 600 µM
